The target in experiment [1] is T1, GluN1/2A NMDA receptors (UniProt P35439+Q12879).
T1 construct: expressed in transfected cells; host or cells: Xenopus oocytes (cRNA injection)
In words: Current-voltage (I-V) relationship, Xenopus oocytes expressing 1/2A. In kind it is cell-based. As to conditions: for Difference in reversal potential (∆Erev) between W and WO CNS4 / Difference in reversal potential (∆Erev) between WO and W CNS4: 100 μM CNS4; for Reversal potential (Erev): with 100 μM CNS4. The procedure:
(§1) There are two sets of recording solutions used for the I‐V assay: solutions with normal (1) and low (2) Ca^2+ concentrations. The normal Ca^2+ solutions contained (mM): 115 NaCl, 1 KCl, 1.8 CaCl2, 10 HEPES. PH was adjusted to 7.2. Low calcium solutions contained 0.018 mM CaCl2 and other components were the same as normal Ca^2+ solution. To study the effects of CNS4 in the absence of extracellular Na^+, NaCl was replaced with impermeable agent, N‐methyl‐D‐glucamine (NMDG, […]). HCl was used to dissolve the NMDG and to adjust the PH to 7.2. NMDG‐containing solutions are termed Nafree. […] There were four different agonist solutions used for each set of Ca^2+ recordings: (1) Agonist, (2) Agonist+CNS4, (3) Agonist in Nafree solution, (4) Agonist+CNS4 in Nafree solution. Each solution was applied to the oocytes in sequential order and the same order was followed for all I‐V recordings. Low Ca^2+ experiments were carried out in the same way as normal Ca^2+ experiments, except that they had 0.018 mM Ca^2+ in all four agonist and recording solutions. Steady state current responses evoked by these solutions at each voltage step were measured. Reversal potentials (Erev) were obtained from x‐intercept values when y = 0 after fitting the I‐V data using a third order polynomial, non‐linear curve fitting equation Y=B0+B1^*X+B2^*X^2+B3^*X^3 . Erev obtained from each oocyte with different agonists were compared in a pairwise manner. These differences were then averaged. Paired or unpaired student t‐test was performed to compare the data as mentioned in each figure legend.
FIGURE 5 Effect on CNS4 on agonist induced current directions in 1/2A receptors. Current –Voltage (I‐V) relationship of 1/2A receptors was studied with normal (A) and low (B) CaCl2 containing extracellular solutions. […] (C) Comparison of reversal potentials values. Dark and light blue circles indicate normal and low CaCl2 experiments, respectively. Dark and light red squares indicate equivalent I‐V experiments with NMDG (Nafree). Dotted and thick lines denote the absence (empty circles or squares) and presence (filled circles or squares) of 100 μM CNS4, respectively. Traces (Ai&ii, Bi&ii) represent the current response at −90 mv. N = 5 (5) & n = 7(7) for normal & low Ca^2+ assays, respectively. Erev obtained from each oocyte with different agonists were compared in a pairwise manner. Paired student t‐test was performed to compare the data presented at Ci. Unpaired student's t‐test was performed to compare the difference in reversal potentials (triangles). *p < .05, **p < .01, ***p < .001, […].

In experiment [2] the target is T2, GluN1/2D NMDA receptors (UniProt O15399+P35439).
T2 construct: host or cells: Xenopus oocytes (cRNA injection)
T2 sequence (O15399 28-1336, other chains not shown): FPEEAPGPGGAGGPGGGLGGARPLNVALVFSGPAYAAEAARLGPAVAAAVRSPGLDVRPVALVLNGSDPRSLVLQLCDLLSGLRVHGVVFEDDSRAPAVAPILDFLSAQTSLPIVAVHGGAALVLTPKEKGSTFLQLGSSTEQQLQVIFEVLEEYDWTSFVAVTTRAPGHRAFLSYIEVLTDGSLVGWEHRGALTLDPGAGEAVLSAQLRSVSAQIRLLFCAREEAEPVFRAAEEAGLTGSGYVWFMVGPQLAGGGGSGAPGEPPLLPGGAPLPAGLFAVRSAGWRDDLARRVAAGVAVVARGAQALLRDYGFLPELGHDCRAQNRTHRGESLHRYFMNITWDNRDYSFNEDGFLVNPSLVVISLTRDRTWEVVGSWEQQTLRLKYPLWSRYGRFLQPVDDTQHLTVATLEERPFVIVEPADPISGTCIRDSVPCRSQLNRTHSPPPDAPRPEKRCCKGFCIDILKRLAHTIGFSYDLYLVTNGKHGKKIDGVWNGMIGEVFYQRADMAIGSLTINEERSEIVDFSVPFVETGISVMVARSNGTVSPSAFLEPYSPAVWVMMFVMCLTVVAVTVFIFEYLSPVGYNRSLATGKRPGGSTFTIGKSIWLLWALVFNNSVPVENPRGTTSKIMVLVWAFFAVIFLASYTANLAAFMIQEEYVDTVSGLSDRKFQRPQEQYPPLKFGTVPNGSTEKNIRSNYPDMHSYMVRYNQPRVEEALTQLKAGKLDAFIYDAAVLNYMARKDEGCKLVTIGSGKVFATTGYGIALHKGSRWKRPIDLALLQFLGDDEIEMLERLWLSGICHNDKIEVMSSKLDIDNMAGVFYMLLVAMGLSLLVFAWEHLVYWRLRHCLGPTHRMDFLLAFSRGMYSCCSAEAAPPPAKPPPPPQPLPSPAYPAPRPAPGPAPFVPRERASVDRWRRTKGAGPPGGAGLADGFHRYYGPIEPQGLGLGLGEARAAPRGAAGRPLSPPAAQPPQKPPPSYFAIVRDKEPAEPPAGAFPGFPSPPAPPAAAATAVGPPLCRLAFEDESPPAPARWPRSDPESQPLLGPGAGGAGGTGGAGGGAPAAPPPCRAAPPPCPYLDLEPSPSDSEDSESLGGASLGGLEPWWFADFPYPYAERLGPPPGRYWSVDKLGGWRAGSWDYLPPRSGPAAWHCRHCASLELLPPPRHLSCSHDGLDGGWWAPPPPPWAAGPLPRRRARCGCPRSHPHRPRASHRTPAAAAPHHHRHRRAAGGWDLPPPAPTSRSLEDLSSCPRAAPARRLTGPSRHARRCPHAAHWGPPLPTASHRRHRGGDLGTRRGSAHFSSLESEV
In words: Current-voltage (I-V) relationship, Xenopus oocytes expressing 1/2D. In kind it is cell-based. As to conditions: for Difference in reversal potential (∆Erev) between W and WO CNS4: 100 μM CNS4; for Reversal potential (Erev): with 100 μM CNS4. The procedure: as §1
FIGURE 6 Effect on CNS4 on agonist induced current directions in 1/2D receptors. Current –Voltage (I‐V) relationship of 1/2D receptors was studied with normal (A) and low (B) CaCl2 containing extracellular solutions. […] Dark and light green circles indicate normal and low CaCl2 experiments, respectively. (C) Comparison of reversal potentials values. Dark and light red squares indicate equivalent I‐V experiments with NMDG (Nafree). Dotted and thick lines denote the absence (empty circles or squares) and presence (filled circles or squares) of 100 μM CNS4, respectively. Traces (Ai&ii, Bi&ii) represent the current response at −90 mv. N = 4 (4) & n = 7(7) for normal & low Ca^2+ assays respectively. Erev obtained from each oocyte with different agonists were compared in a pairwise manner. Paired student t‐test was performed to compare the data presented at Ci. Unpaired student's t‐test was performed to compare the difference in reversal potentials (triangles). *p < .05.

Data on one compound can be found in publication PMC10245146, “CNS4 causes subtype‐specific changes in agonist efficacy and reversal potential of permeant cations in NMDA receptors” (Pharmacology Research & Perspectives, 2023).

Molecules are shown by their SMILES.

T1 sequence (Q12879 23-1464, other chains not shown): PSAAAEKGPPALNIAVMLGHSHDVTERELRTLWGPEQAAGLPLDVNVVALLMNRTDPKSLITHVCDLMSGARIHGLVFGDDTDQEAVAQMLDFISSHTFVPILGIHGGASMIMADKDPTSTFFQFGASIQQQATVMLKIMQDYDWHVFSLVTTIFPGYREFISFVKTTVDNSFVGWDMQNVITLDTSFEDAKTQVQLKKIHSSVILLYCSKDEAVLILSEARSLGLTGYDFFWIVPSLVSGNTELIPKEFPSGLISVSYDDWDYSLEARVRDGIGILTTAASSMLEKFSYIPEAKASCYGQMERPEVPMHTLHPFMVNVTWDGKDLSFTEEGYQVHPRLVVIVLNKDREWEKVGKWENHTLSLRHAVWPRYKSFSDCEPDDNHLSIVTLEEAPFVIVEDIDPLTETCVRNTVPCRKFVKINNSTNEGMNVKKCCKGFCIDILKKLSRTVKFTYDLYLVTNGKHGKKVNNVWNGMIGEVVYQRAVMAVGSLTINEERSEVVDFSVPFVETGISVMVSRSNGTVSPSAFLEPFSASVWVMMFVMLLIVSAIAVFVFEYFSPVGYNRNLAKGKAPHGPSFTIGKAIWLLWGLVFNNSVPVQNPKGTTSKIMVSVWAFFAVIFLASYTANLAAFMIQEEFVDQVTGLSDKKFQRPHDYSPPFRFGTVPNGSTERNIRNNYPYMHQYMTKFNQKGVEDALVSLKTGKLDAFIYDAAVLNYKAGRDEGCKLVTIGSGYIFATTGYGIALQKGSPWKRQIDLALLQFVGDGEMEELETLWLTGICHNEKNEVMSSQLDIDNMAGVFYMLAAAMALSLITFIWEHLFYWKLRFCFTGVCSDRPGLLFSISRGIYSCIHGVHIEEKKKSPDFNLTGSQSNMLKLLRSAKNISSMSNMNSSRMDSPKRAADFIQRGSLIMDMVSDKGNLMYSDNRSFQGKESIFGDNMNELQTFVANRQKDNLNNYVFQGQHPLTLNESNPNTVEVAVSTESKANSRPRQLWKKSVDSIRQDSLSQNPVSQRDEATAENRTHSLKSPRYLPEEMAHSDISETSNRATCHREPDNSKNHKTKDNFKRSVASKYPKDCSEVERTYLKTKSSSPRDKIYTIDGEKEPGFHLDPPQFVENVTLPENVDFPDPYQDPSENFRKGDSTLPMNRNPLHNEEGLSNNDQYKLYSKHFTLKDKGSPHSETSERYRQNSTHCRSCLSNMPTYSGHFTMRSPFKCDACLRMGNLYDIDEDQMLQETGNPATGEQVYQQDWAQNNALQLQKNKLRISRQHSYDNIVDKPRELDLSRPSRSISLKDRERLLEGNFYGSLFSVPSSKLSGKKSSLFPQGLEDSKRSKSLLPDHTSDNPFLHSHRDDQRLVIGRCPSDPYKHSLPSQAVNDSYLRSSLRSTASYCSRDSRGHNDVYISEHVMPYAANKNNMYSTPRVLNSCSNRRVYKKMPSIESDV

Take `O=C(NC(=S)N1CCCCC1c1cccnc1)c1ccc(F)cc1` (centres unmarked) [CNS4]: the “Difference in reversal potential (∆Erev) between W and WO CNS4” value in experiment [1] (low Ca2+, Nafree, n = 7) is listed as −7.32 ± 3.95 mV; in experiment [1] (low Ca2+, with Na+, n = 6), 8.76 ± 3.15 mV; in experiment [2] (low Ca2+, Nafree, n = 6), −6.22 ± 4.08 mV; in experiment [2] (low Ca2+, with Na+, n = 7), −26.55 ± 7.66 mV; in experiment [2] (normal Ca2+, Nafree, n = 4), −2.21 ± 2.14 mV; in experiment [2] (normal Ca2+, with Na+, n = 4), −0.22 ± 2.08 mV. The “Difference in reversal potential (∆Erev) between WO and W CNS4” value in experiment [1] (normal Ca2+, Nafree, n = 3) was −6.79 ± 1.98 mV; in experiment [1] (normal Ca2+, with Na+, n = 4), 24.85 ± 3.26 mV. The “Reversal potential (Erev)” value in experiment [1] (1.8 mM (normal) Ca2+, with Na+, 100 μM glutamate + glycine, without CNS4 −12.05 ± 8.18, p = .004) is 10.49 ± 8.23 mV; in experiment [1] (low Ca2+, Nafree, without CNS4 −61.38 ± 3.99, p = .113) it was −68.71 ± 4.82 mV; in experiment [1] (normal Ca2+, Nafree (NMDG), without CNS4 −18.16 ± 5.09, p = .16) it was −32.93 ± 7.03 mV; in experiment [2] (low Ca2+, with Na+, without CNS4 ‐44.02 ± 6.04, p = .013) it was −70.57 ± 6.44 mV; in experiment [2] (normal Ca2+, Nafree, without CNS4 −77.99 ± 1.77, p = .378), −80.20 ± 2.54 mV; in experiment [2] (normal Ca2+, with Na+, without CNS4 −61.43 ± 5.26, p = .919), −61.66 ± 5.55 mV.
